Measurements reported in publication PMC4176390 (Journal of Natural Products, 2014).

What was measured:
[1] = test system: VSSCs; settings: cited from earlier work
[2] = biological target: brevenal binding site; assay: Radioligand; settings: read-out: Ki: radioligand assay; [3H]-brevenol, rat brain synaptosomes, mean ± SEM
[3] = test system: sheep; settings: cited from earlier work
[4] = test system: voltage-sensitive sodium channels (VSSCs); settings: cited from earlier work
[5] = test system: fish; settings: cited from earlier work
[6] = test system: brevenal binding site; assay: Fluorescent-ligand competition; design: species or system rat; settings: for displacement of BODIPY FL-brevenal from synaptosomes (in words): BODIPY FL-brevenal 10 nM, competitors 1 pM to 10 μM

For `C=C/C=C\CC[C@H]1O[C@H]2CC[C@@]3(C)O[C@H]4[C@@H](O)C[C@@]5(C)O[C@@H](CC/C=C(C)/C(C)=C/C=O)[C@@H](C)C[C@H]5O[C@@H]4C[C@@H]3O[C@@H]2CC[C@@]1(C)O` [brevenal], the “effect on VSSCs in patch-clamp experiments” value [1] is listed as “does not appear to have any effect”, the Ki [2] is listed as 0.149 ± 0.03 µM and the “mucociliary transport in sheep” value [3] is listed as “increases mucociliary transport”. The “displacement of tritiated PbTx from synaptosomes” value [4] was “competitively displace”, the toxicity to fish [5] was “nontoxic at micromolar concentrations” and the “displacement of BODIPY FL-brevenal from synaptosomes (in words)” value (from here on “displacement of BODIPY FL-brevenal”) [6] was “competed for binding to synaptosomes”. For the same compound, the Ki ([6]; read-out: Ki: fluorescent-ligand assay, BODIPY FL-brevenal 10 nM as ligand, rat brain synaptosomes, mean ± SEM) was 0.17 ± 0.031 µM.

For `COc1ccc(C(=O)O[C@H]2CC[C@@]3(C)[C@@H]4CC[C@H]5[C@]6(O)C[C@H](O)[C@@]7(O)[C@@H](CN8C[C@@H](C)CC[C@H]8[C@@]7(C)O)[C@]6(O)C[C@@]53O[C@]24O)cc1OC` [veratridine], the “displacement of BODIPY FL-brevenal” value [6] was “none of these ligands were able to displace”.

For PbTx-9, the “displacement of BODIPY FL-brevenal” value [6] was “None of the naturally occurring PbTx analogues were able to displace”.

For `CCN1C[C@]2(COC)[C@H](O)C[C@H](OC)[C@@]34[C@@H]5C[C@@]6(O)[C@H](OC(=O)c7ccccc7)[C@@H]5[C@@](OC(C)=O)([C@@H]([C@H](OC)[C@H]23)[C@@H]14)[C@@H](O)[C@@H]6OC` [aconitine], the “displacement of BODIPY FL-brevenal” value [6] was “none of these ligands were able to displace”.

With `CC1(C)[C@H](C(=O)O[C@H](C#N)c2cccc(Oc3ccccc3)c2)[C@@H]1C=C(Br)Br` [deltamethrin] the “displacement of BODIPY FL-brevenal” value [6] was “none of these ligands were able to displace”.
